Experimental data: patent US10065990B2, “Cyclic peptide compound, and preparation method, pharmaceutical composition and use thereof” (HANGZHOU GUANYU BIO-MEDICAL CO., LTD, priority 2013, dated 2018)
Where two headings read alike, the source gives them in different places.

What was measured:
Assay in all cases: MTT cancer cell growth inhibition
Assay type in all cases: cell-based
[1] = tested on: A549 (human lung cancer cells); details: MTT
How it was run: (§1)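 72 h exposure, final drug 10^−5–10^−10 M, triplicate wells; 1500 cells/well plated the day before; medium DMEM or 1640 + 10% FBS; 37° C./5% CO2. MTT (5 mg/ml stock) 4 h, DMSO solubilisation, A570 → % viability → GI50.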

[2] = tested on: KBM-5 (human chronic myelogenous leukemia); details: MTT, 72 hours incubation, KBM-5 cells, read-out: GI50 KBM-5
How it was run: as §1

[3] = tested on: BGC-823 (human gastric cancer cells); details: MTT
How it was run: as §1

[4] = tested on: DU145 (human prostate cancer cells); details: MTT
How it was run: as §1

[5] = tested on: U937 (human leukemia cells); details: MTT
How it was run: as §1

[6] = tested on: Huh-7 (human hepatoma cells); details: MTT, 72 hours incubation, Huh-7 cells, read-out: GI50 Huh-7
How it was run: as §1

[7] = tested on: MCF-7 (human breast cancer cells)
How it was run: as §1

[8] = tested on: H1975 (non-small cell lung adenocarcinoma); details: MTT, 72 hours incubation, H1975 cells, read-out: GI50 H1975
How it was run: as §1

[9] = tested on: Hela (human cervical cancer cells); details: MTT
How it was run: as §1

[10] = tested on: KBM5-T315I (human chronic myelogenous leukemia); details: MTT, 72 hours incubation, KBM5-T315I cells, read-out: GI50 KBM5-T315I
How it was run: as §1

[11] = tested on: SGC-7901 (human gastric cancer cells); details: MTT, 72 hours incubation, SGC-7901 cells, read-out: GI50 SGC-7901
How it was run: as §1

[12] = tested on: lncap (prostate cancer cells); details: MTT
How it was run: as §1

[13] = tested on: MOLT-4 (human acute lymphoblastic leukemia cells); details: MTT
How it was run: as §1

[14] = tested on: MDA-MB-231 (breast cancer cells)
How it was run: as §1

[15] = tested on: PANC-1 (Pac-1, human pancreatic cancer cells); details: MTT
How it was run: as §1

[16] = Homo sapiens, A549, 72 h, 72 hours incubation, read-out: GI50 A54
[17] = Homo sapiens, BGC-823, 72 h, 72 hours incubation, read-out: GI50 BG
[18] = Homo sapiens, DU-145, 72 h, 72 hours incubation, read-out: GI50 Du1
[19] = Homo sapiens, U-937, 72 h, 72 hours incubation, read-out: GI50 U93
[20] = Homo sapiens, MCF7, 72 h, 72 hours incubation, read-out: GI50 MCF
[21] = Homo sapiens, HeLa, 72 h, 72 hours incubation, read-out: GI50 Hela
[22] = Homo sapiens, LNCaP, 72 h, 72 hours incubation, read-out: GI50 lnca
[23] = Homo sapiens, MOLT-4, 72 h, 72 hours incubation, read-out: GI50 Mol
[24] = Homo sapiens, MDA-MB-231, 72 h, read-out: GI50 MDA-MB-231, MTT, 72 hours incubation, MDA-MB-231 cells
[25] = Homo sapiens, PANC-1, 72 h, 72 hours incubation, read-out: GI50 PAN
[26] = Homo sapiens, A549, 72 h, A549 cells, 72 hours incubation, read-out: GI50 A54
[27] = Homo sapiens, A549, 72 h, 72 hours, present invention, read-out: GI50 A549, a
[28] = Homo sapiens, BGC-823, 72 h, BGC-823 cells, 72 hours incubation, read-out: GI50 BG
[29] = Homo sapiens, BGC-823, 72 h, 72 hours, present invention, read-out: GI50 BGC823, a
[30] = Homo sapiens, DU-145, 72 h, DU145 cells, 72 hours incubation, read-out: GI50 Du1
[31] = Homo sapiens, DU-145, 72 h, 72 hours, present invention, read-out: GI50 Du145, a
[32] = Homo sapiens, U-937, 72 h, 72 hours, present invention, read-out: GI50 U937, a
[33] = Homo sapiens, U-937, 72 h, U937 cells, 72 hours incubation, read-out: GI50 U93
[34] = Homo sapiens, MCF7, 72 h, 72 hours, present invention, read-out: GI50 MCF7, a
[35] = Homo sapiens, MCF7, 72 h, MCF-7 cells, 72 hours incubation, read-out: GI50 MCF
[36] = Homo sapiens, HeLa, 72 h, Hela cells, 72 hours incubation, read-out: GI50 Hela
[37] = Homo sapiens, HeLa, 72 h, 72 hours, present invention, read-out: GI50 Hela, a
[38] = Homo sapiens, LNCaP, 72 h, 72 hours, present invention, read-out: GI50 lncap, a
[39] = Homo sapiens, LNCaP, 72 h, lncap cells, 72 hours incubation, read-out: GI50 lnca
[40] = Homo sapiens, MOLT-4, 72 h, MOLT-4 cells, 72 hours incubation, read-out: GI50 Mol
[41] = Homo sapiens, MOLT-4, 72 h, 72 hours, present invention, read-out: GI50 Molt-4, a
[42] = Homo sapiens, PANC-1, 72 h, 72 hours, present invention, read-out: GI50 PANC-1, a
[43] = Homo sapiens, PANC-1, 72 h, PANC-1 cells, 72 hours incubation, read-out: GI50 PAN

GI50 [1, 16] | GI50 ([2]; Homo sapiens, KBM5, 72 h) | GI50 [3, 17] | GI50 [4, 18] | GI50 [5, 19] | GI50 ([6]; Homo sapiens, Huh-7, 72 h) | GI50 [7, 20] | GI50 ([8]; Homo sapiens, NCI-H1975, 72 h) | GI50 [9, 21] | GI50 ([10]; Homo sapiens, 72 h) | GI50 ([11]; Homo sapiens, SGC-7901, 72 h) | GI50 [12, 22] | GI50 [13, 23] | GI50 [14, 24] | GI50 [15, 25] | GI50 [1, 26] | GI50 [3, 28] | GI50 [4, 30] | GI50 [5, 33] | GI50 [7, 35] | SMILES | also measured
 |  |  |  |  |  |  |  |  |  |  |  |  |  |  |  |  |  |  |  | C/C=C1\NC(=O)c2nc(cc(SC)n2)CNC(=O)C[C@@H](/C=C/CCSC(C)=O)OC(=O)[C@H](C(C)C)NC1=O [Compound 216] | GI50 ([1]; A549 cells, 72 hours incubation, read-out: GI50 A54): 80 nM; GI50 [2]: 38 nM; GI50 ([3]; BGC-823 cells, 72 hours incubation, read-out: GI50 BG): 60 nM; GI50 ([4]; DU145 cells, 72 hours incubation, read-out: GI50 Du1): 20 nM; GI50 ([5]; U937 cells, 72 hours incubation, read-out: GI50 U93): 80 nM; GI50 [6]: 49 nM; GI50 ([7]; MCF-7 cells, 72 hours incubation, read-out: GI50 MCF): 50 nM; GI50 [8]: 87 nM; GI50 ([9]; Hela cells, 72 hours incubation, read-out: GI50 Hela): 70 nM; GI50 [10]: 36 nM; GI50 [11]: 38 nM; GI50 ([12]; lncap cells, 72 hours incubation, read-out: GI50 lnca): 10 nM; GI50 ([13]; MOLT-4 cells, 72 hours incubation, read-out: GI50 Mol): 40 nM; GI50 ([14]; read-out: GI50 MDA-MB-231, MTT, 72 hours incubation, MDA-MB-231 cells): 62 nM; GI50 ([15]; PANC-1 cells, 72 hours incubation, read-out: GI50 PAN): 20 nM
1030 nM | 72 nM | 5880 nM | 40 nM | 120 nM | 82 nM | 1110 nM | 41 nM | 390 nM | 26 nM | 53 nM | 390 nM | 2060 nM | 92 nM | 4070 nM |  |  |  |  |  | C/C=C1\NC(=O)c2cccc(n2)NC(=O)C[C@@H](/C=C/CCSC(C)=O)OC(=O)[C@H](C(C)C)NC1=O [Example 22] | 
30 nM | 73 nM | 50 nM | 60 nM | 50 nM | 29 nM | 20 nM | 51 nM | 70 nM | 28 nM | 35 nM | 20 nM | 20 nM | 29 nM | 80 nM |  |  |  |  |  | C/C=C1\NC(=O)c2ccc(F)c(n2)CNC(=O)C[C@@H](/C=C/CCSC(=O)CCCCCCC)OC(=O)[C@H](Cc2ccccc2)NC1=O [Example 71] | 
 | 33 nM |  |  |  | 67 nM |  | 72 nM |  | 53 nM | 48 nM |  |  | 17 nM |  | 510 nM | 90 nM | 90 nM | 70 nM | 760 nM | C/C=C1\NC(=O)c2cccc(n2)CNC(=O)C[C@@H](/C=C/CCSC(=O)CCCCCCC)OC(=O)[C@@H](C)NC1=O [Compound 236] | GI50 [1, 27]: 510 nM; GI50 [3, 29]: 93 nM; GI50 [4, 31]: 91 nM; GI50 [5, 32]: 77 nM; GI50 [7, 34]: 760 nM; GI50 [9, 36]: 810 nM; GI50 [9, 37]: 810 nM; GI50 [12, 38]: 530 nM; GI50 [12, 39]: 50 nM; GI50 [13, 40]: 860 nM; GI50 [13, 41]: 860 nM; GI50 [15, 42]: 210 nM; GI50 [15, 43]: 210 nM
 | 93 nM |  |  |  | 53 nM |  | 43 nM |  | 45 nM | 25 nM |  |  | 93 nM |  | 940 nM | 860 nM | 130 nM | 870 nM | 120 nM | C/C=C1\NC(=O)c2nc(ccc2C)CNC(=O)C[C@@H](/C=C/CCSC(=O)CCCCCCC)OC(=O)[C@H](C(C)C)NC1=O [Compound 243] | GI50 [1, 27]: 940 nM; GI50 [3, 29]: 860 nM; GI50 [4, 31]: 130 nM; GI50 [5, 32]: 870 nM; GI50 [7, 34]: 120 nM; GI50 [9, 36]: 230 nM; GI50 [9, 37]: 230 nM; GI50 [12, 38]: 470 nM; GI50 [12, 39]: 470 nM; GI50 [13, 40]: 490 nM; GI50 [13, 41]: 490 nM; GI50 [15, 42]: 520 nM; GI50 [15, 43]: 520 nM
50 nM | 79 nM | 10 nM | 40 nM | 50 nM | 89 nM | 20 nM | 38 nM | 30 nM | 68 nM | 26 nM | 30 nM | 30 nM | 20 nM | 90 nM |  |  |  |  |  | C/C=C1\NC(=O)c2cc(F)cc(n2)CCNC(=O)C[C@@H](/C=C/CCSC(C)=O)OC(=O)[C@H](C(C)C)NC1=O [Compound 104] | 
 | 28 nM |  |  |  | 75 nM |  | 31 nM |  | 31 nM | 83 nM |  |  | 57 nM |  | 30 nM | 20 nM | 60 nM | 30 nM | 60 nM | C/C=C1\NC(=O)c2nc(ccc2SC)CNC(=O)C[C@@H](/C=C/CCSC(=O)CCCCC)OC(=O)[C@H](C(C)C)NC1=O [Compound 153] | GI50 [9, 36]: 50 nM; GI50 [12, 39]: 50 nM; GI50 [13, 40]: 80 nM; GI50 [15, 43]: 20 nM
30 nM | 82 nM | 30 nM | 30 nM | 30 nM | 37 nM | 20 nM | 39 nM | 80 nM | 22 nM | 35 nM | 30 nM | 30 nM | 37 nM | 80 nM |  |  |  |  |  | C/C=C1\NC(=O)c2nc(ccc2F)CNC(=O)C[C@@H](/C=C/CCSC(=O)CCCCCCC)OC(=O)[C@H](C(C)C)NC1=O [Compound 30] | 
40 nM | 61 nM | 30 nM | 20 nM | 20 nM | 43 nM | 50 nM | 19 nM | 60 nM | 57 nM | 47 nM | 40 nM | 40 nM | 43 nM | 60 nM |  |  |  |  |  | C/C=C1\NC(=O)c2nc(ccc2F)CNC(=O)C[C@@H](/C=C/CCSC(=O)CCCCC)OC(=O)[C@H](C(C)C)NC1=O [Compound 36] | 
 | 61 nM |  |  |  | 15 nM |  | 54 nM |  | 28 nM | 19 nM |  |  | 51 nM |  | 60 nM | 30 nM | 30 nM | 50 nM | 60 nM | C/C=C1\NC(=O)c2ccc(SC)c(n2)CNC(=O)C[C@@H](/C=C/CCSC(C)=O)OC(=O)[C@H](CC)NC1=O [Compound 179] | GI50 [9, 36]: 30 nM; GI50 [12, 39]: 100 nM; GI50 [13, 40]: 80 nM; GI50 [15, 43]: 60 nM
